According to patent publication US5324502A, “Radiopharmaceuticals for imaging the heart” (priority 1992, dated 1994):
Where two headings read alike, the source gives them in different places.

Assays:
[1] = rat, in vivo, iv
Outline: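 Male Sprague-Dawley rats under ether anesthesia received 1 to 3 μCi of no-carrier-added Ga-67 complex as a femoral-vein bolus. Animals were killed at set times post-injection; organs weighed and counted. Values given as % injected dose per gram and per organ.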

[2] = Octanol/water partition coefficient of radiolabeled gallium complexes; type: physicochemical; conditions: octanol/tris buffer, pH 7
Protocol: Octanol/water partition coefficients were measured by vortex mixing 1 mL of 1-octanol and 1 mL of isotonic Tris buffer (pH 7.0) with a 1-5 μL sample of the radiolabeled gallium complex. Following centrifugation at >1200 g for 5 minutes, the octanol and aqueous phases were sampled and counted in an automatic well counter.

[3] = PET imaging of the heart with the 68Ga complex; conditions: dog, 20 mCi bolus i.v.
Source text: The dog was placed in a plexiglass holder and positioned within the PET VI camera, a positron emission tomograph that permits simultaneous acquisition of seven transverse tomographic slices with a slice-to-slice separation of 1.44 cm, a slice thickness of 1.39 cm, and a reconstructed resolution of 12.0 mm (full width at half maximum). A transmission scan, necessary for attenuation correction, was obtained using an external ring of ^68 Ge/^68 Ga. A ^15 O-myocardial perfusion image was then obtained for reference employing ^15 O-water and ^15 O-carbon monoxide in a standard PET protocol. After decay of the ^15 O activity to background levels, the ^68 Ga-bis(4,6-dimethoxysalicylaldimino)-N,N'-bis(aminopropyl) ethylene-diamine radiopharmaceutical (20 mCi) was administered to the dog as a bolus intravenous injection. Dynamic PET data was collected for ten 1 minute frames commencing at the time of ^68 Ga injection, followed by eight consecutive 10 minute static images. PET images of the chest were reconstructed from each of the ten one minute frames and each of the eight 10 minute frames. […] Regions-of-interest were defined in the ^68 Ga images allowing quantitative determination of regional myocardial tissue concentrations of tracer.

Row | Compound | % injected dose in heart, 1 min [1] | % injected dose in heart, 2 h [1] | % Injected Dose per Gram Tissue, Blood ([1]; 1 min) | % Injected Dose per Gram Tissue, Brain ([1]; 1 min) | % Injected Dose per Gram Tissue, Heart ([1]; 1 min) | % Injected Dose per Gram Tissue, Kidney (one) ([1]; 1 min) | % Injected Dose per Gram Tissue, Liver ([1]; 1 min) | % Injected Dose per Gram Tissue, Lungs ([1]; 1 min) | % Injected Dose per Gram Tissue, Spleen ([1]; 1 min) | Heart/Blood ([1]; 1 min) | % Injected Dose per Gram Tissue, Blood ([1]; 2 h) | % Injected Dose per Gram Tissue, Heart ([1]; 2 h) | % Injected Dose per Gram Tissue, Kidney (one) ([1]; 2 h) | % Injected Dose per Gram Tissue, Liver ([1]; 2 h) | % Injected Dose per Gram Tissue, Lungs ([1]; 2 h) | % Injected Dose per Gram Tissue, Spleen ([1]; 2 h) | Heart/Blood ([1]; 2 h) | % Injected Dose per Gram Tissue, Blood ([1]; […]) | % Injected Dose per Gram Tissue, Heart ([1]; […]) | % Injected Dose per Gram Tissue, Kidney (one) ([1]; […]) | also measured
1 | COc1ccc(C=NCCCNCCNCCCN=Cc2ccc(OC)cc2[O-])c([O-])c1.[67Ga+3] [(4-MeOSal)2 BAPEN, ^67 GaL^+ L = [bis(4-methoxysalicylaldimino)-N,N'-bis(3-aminopropyl)-ethylenediamine]] | 0.67 ± 0.08 % injected dose | 0.65 ± 0.05 % injected dose | 0.32 ± 0.02 | 0.02 ± 0.01 | 0.96 ± 0.07 | 11.08 ± 0.88 | 3.05 ± 0.27 | 0.91 ± 0.09 | 0.31 ± 0.05 | 2.99 ± 0.15 | 0.03 ± 0.01 | 0.92 ± 0.07 | 2.19 ± 0.08 | 0.63 ± 0.20 | 0.32 ± 0.02 | 0.17 ± 0.03 | 30.58 ± 2.22 | 0.06 ± 0.01 | 1.01 ± 0.08 | 4.47 ± 0.62 | % Injected Dose per Gram Tissue, Brain ([1]; 2 h): 0.01 ± 0.003; % Injected Dose per Gram Tissue, Brain ([1]; […]): 0.01 ± 0.001; % Injected Dose per Gram Tissue, Liver ([1]; […]): 1.71 ± 0.40; % Injected Dose per Gram Tissue, Lungs ([1]; […]): 0.38 ± 0.05; % Injected Dose per Gram Tissue, Spleen ([1]; […]): 0.22 ± 0.02; Heart/Blood ([1]; […]): 17.62 ± 0.31; log P [2]: 0.80
2 | COc1cc([O-])c(C=NCCCNCCNCCCN=Cc2c([O-])cc(OC)cc2OC)c(OC)c1.[68Ga+3] [^68 Ga-bis(4,6-dimethoxysalicylaldimino)-N,N'-bis(aminopropyl)ethylenediamine] |  |  |  |  |  |  |  |  |  |  |  |  |  |  |  |  |  |  |  |  | clearance of myocardial ^68 Ga radioactivity ([3]; 90 minute imaging period): No clearance of myocardial ^68 Ga radioactivity was observed; delineation of the heart in ^68 Ga PET images ([3]; beyond 20 minutes post-injection): the heart was clearly delineated in the ^68 Ga-images with good heart-to-blood and heart-to-lung contrast
3 | COc1ccc([O-])c(C=NCCCNCCNCCCN=Cc2cc(OC)ccc2[O-])c1.[67Ga+3] [(5-MeOSal)2 BAPEN, ^67 GaL^+ L = [bis(5-methoxysalicylaldimino)-N,N'-bis(3-aminopropyl)ethylenediamine]] | 0.34 ± 0.03 % injected dose | 0.23 ± 0.03 % injected dose | 0.52 ± 0.08 | 0.02 ± 0.01 | 0.46 ± 0.03 | 9.31 ± 0.32 | 3.01 ± 0.51 | 0.55 ± 0.14 | 0.25 ± 0.02 | 0.89 ± 0.12 | 0.08 ± 0.01 | 0.33 ± 0.03 | 1.57 ± 0.13 | 0.78 ± 0.01 | 0.16 ± 0.02 | 0.07 ± 0.01 | 4.33 ± 0.28 | 0.15 ± 0.04 | 0.36 ± 0.01 | 4.65 ± 1.29 | % Injected Dose per Gram Tissue, Brain [1]: 0.00 ± 0.00; % Injected Dose per Gram Tissue, Liver ([1]; […]): 2.09 ± 0.78; % Injected Dose per Gram Tissue, Lungs ([1]; […]): 0.22 ± 0.22; % Injected Dose per Gram Tissue, Spleen ([1]; […]): 0.09 ± 0.01; Heart/Blood ([1]; […]): 2.61 ± 0.55; log P [2]: 0.53
